This test concerns BSC cells, SV40 CPE inhibition. The test is described as follows: antiviral efficacy against SV40, host toxicity – BSC cells, set 3, confirmation (AID 485276). To be noted: measured here: BSC cell cytotoxicity.

In turn, `Oc1c(Cl)cc(Cl)cc1Sc1cc(Cl)cc(Cl)c1O` yielded a TC50 of 21.2 µM.

For the compound `Oc1ccc(C2(c3ccc(O)cc3)CC2)cc1`, the TC50 was 196 µM. The compound `CC(C)(c1ccc(O)cc1)c1ccc(O)cc1` showed a TC50 of 17 µM. The same measure for `CC(C)(c1ccc(O)cc1)c1ccc(Cl)cc1`: 71.2 µM; for `Oc1ccc(Oc2ccc(O)cc2)cc1`: 9.92 µM; for `CC(C)c1cc(C(C)(C)c2ccc(O)c(C(C)C)c2)ccc1O`: 24 µM.

Compound `Oc1ccc(Cl)cc1Cc1cc(Cl)ccc1O` showed a TC50 of 18 µM.

Source of the values: PubChem BioAssay AID485276 (Southern Research Specialized Biocontainment Screening …, 2010).
